Assay results as given in patent publication US20130303535A1, “NOVEL BICYCLIC HETEROCYCLIC COMPOUND” (priority 2008, published 2013).

biological target: TTX resistant Na channel of human SNS-expressing cell (SNS) (Homo sapiens, UniProt Q9Y5Y9); assay: cell-based; settings: CHO-K1, compound concentration 12.5 μM; read-out: SNS inhibitory rate (%)
Sequence (Q9Y5Y9 whole entry, looked up): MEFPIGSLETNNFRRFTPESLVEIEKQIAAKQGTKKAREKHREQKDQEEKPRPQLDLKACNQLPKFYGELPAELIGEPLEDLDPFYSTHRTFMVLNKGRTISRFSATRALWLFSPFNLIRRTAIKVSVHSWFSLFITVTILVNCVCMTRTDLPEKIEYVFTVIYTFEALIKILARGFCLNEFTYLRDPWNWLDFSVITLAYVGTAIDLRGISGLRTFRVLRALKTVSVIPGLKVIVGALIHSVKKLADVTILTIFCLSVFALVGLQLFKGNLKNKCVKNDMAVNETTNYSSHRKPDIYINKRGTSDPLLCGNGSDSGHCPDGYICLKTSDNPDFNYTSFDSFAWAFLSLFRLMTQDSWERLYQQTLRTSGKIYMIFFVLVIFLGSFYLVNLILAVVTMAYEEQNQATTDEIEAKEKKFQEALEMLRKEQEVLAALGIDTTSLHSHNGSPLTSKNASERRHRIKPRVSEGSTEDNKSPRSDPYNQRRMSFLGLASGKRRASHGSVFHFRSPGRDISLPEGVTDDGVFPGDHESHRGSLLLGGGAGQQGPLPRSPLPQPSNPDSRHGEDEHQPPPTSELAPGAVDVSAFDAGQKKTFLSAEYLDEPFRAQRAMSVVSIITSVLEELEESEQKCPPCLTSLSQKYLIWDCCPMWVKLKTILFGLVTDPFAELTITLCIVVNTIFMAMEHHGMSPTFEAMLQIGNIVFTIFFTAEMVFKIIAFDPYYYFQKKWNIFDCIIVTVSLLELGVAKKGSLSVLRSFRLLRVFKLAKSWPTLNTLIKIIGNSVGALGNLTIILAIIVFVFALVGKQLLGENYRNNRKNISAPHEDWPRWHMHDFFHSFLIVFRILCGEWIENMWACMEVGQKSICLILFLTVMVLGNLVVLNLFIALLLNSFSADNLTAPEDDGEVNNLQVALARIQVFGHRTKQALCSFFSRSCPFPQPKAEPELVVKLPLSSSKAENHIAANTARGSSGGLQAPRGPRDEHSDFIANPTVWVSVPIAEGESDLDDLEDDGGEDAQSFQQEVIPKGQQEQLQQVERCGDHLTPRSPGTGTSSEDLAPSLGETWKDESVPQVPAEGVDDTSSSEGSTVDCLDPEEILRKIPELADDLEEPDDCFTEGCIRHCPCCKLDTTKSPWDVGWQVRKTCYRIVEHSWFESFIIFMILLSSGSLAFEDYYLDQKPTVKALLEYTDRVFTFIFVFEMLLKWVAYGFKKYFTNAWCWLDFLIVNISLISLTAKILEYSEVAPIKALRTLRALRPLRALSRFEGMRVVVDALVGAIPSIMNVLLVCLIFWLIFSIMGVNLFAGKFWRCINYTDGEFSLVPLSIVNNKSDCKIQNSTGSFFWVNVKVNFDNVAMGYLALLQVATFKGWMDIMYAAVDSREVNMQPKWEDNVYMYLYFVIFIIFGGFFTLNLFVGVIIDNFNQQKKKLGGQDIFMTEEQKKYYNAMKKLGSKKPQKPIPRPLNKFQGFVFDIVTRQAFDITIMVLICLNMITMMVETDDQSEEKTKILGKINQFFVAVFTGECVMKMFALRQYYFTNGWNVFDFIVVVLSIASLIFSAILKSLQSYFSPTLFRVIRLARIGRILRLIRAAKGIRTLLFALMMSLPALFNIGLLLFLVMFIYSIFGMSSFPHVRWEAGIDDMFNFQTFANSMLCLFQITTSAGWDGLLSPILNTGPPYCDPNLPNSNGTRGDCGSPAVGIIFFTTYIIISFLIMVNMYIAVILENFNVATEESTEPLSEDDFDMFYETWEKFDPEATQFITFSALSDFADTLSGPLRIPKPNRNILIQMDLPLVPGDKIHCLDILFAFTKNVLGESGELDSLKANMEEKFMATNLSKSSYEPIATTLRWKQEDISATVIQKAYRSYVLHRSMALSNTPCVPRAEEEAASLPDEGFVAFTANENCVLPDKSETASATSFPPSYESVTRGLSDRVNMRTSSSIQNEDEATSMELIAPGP

SMILES	inhibition at 12.5 µM
CCn1c(CN[C@@H](C)C(N)=O)nc2cc(F)c(-c3ccc(F)cc3)cc21 [Example 111, N^2-{[1-ethyl-5-fluoro-6-(4-fluorophenyl)-1H-benzimidazol-2-yl]methyl}-L-alaninamide]	88.4%
CCOCCn1c(CN[C@@H](C)C(N)=O)nc2c(Cl)cc(-c3ccc(F)cc3)cc21 [Example 112, N^2-{[4-chloro-1-(2-ethoxyethyl)-6-(4-fluorophenyl)-1H-benzimidazol-2-yl]methyl}-L-alaninamide]	0%
CCOCCn1c(CN[C@@H](C)C(N)=O)nc2cc(C)c(-c3ccc(F)cc3)cc21 [Example 113, N^2-{[1-(2-ethoxyethyl)-6-(4-fluorophenyl)-5-methyl-1H-benzimidazol-2-yl]methyl}-L-alaninamide]	64.7%
CCOCCn1c(CN[C@@H](C)C(N)=O)nc2c(F)cc(-c3ccc(F)cc3)cc21 [Example 114, N^2-{[1-(2-ethoxyethyl)-4-fluoro-6-(4-fluorophenyl)-1H-benzimidazol-2-yl]methyl}-L-alaninamide]	6.5%
CCOCCn1c(CN[C@@H](C)C(N)=O)nc2cc(C(F)(F)F)c(-c3ccc(F)cc3)cc21 [Example 115, N^2-{[1-(2-ethoxyethyl)-6-(4-fluorophenyl)-5-(trifluoromethyl)-1H-benzimidazol-2-yl]methyl}-L-alaninamide]	3.5%
C[C@H](NCc1nc2cc(F)c(-c3ccc(F)cc3)cc2n1C1CCOCC1)C(N)=O [Example 116, N^2-{[5-fluoro-6-(4-fluorophenyl)-1-(tetrahydro-2H-pyran-4-yl)-1H-benzimidazol-2-yl]methyl}-L-alaninamide]	33.2%
C[C@H](NCc1nc2ccc(Oc3ccc(F)cc3)cc2n1CCO)C(N)=O [Example 117, N^2-{[6-(4-fluorophenoxy)-1-(2-hydroxyethyl)-1H-benzimidazol-2-yl]methyl}-L-alaninamide]	78.8%
CCOCCn1c(CN[C@@H](C)C(N)=O)nc2cc(Cl)c(Oc3ccc(F)cc3)cc21 [Example 118, N^2-{[5-chloro-1-(2-ethoxyethyl)-6-(4-fluorophenoxy)-1H-benzimidazol-2-yl]methyl}-L-alaninamide]	64.5%
Cc1ccc(Oc2ccc3nc(CN[C@@H](C)C(N)=O)n(C[C@@H]4CCCO4)c3c2)cc1 [Example 119]	87.2%
C[C@H](NCc1nc2ccc(Oc3ccc(OC(F)(F)F)cc3)cc2n1C[C@@H]1CCCO1)C(N)=O [Example 120]	92.4%
C[C@H](NCc1nc2ccc(Oc3ccc(F)cc3F)cc2n1C[C@@H]1CCCO1)C(N)=O [Example 121]	94.3%
COCCCn1c(CN[C@@H](C)C(N)=O)nc2ccc(Oc3ccc(F)c(F)c3)cc21 [Example 122]	100%
COCCCn1c(CN[C@@H](C)C(N)=O)nc2ccc(Oc3ccc(F)cc3F)cc21 [Example 123]	96.8%
C[C@H](NCc1nc2ccc(Oc3ccc(F)c(F)c3)cc2n1C[C@H]1CCCO1)C(N)=O [Example 124]	87.8%
C[C@H](NCc1nc2ccc(Oc3ccc(F)cc3F)cc2n1C[C@H]1CCCO1)C(N)=O [Example 125]	95.9%
COCCCn1c(CN[C@@H](C)C(N)=O)nc2ccc(Oc3ccc(C)cc3)cc21 [Example 126]	56.9%
COCCCn1c(CN[C@@H](C)C(N)=O)nc2ccc(Oc3ccc(OC(F)(F)F)cc3)cc21 [Example 127]	93.9%
C[C@H](NCc1nc2ccc(Oc3ccc(F)c(F)c3)cc2n1C1CCOCC1)C(N)=O [Example 128]	85%
Cc1ccc(Oc2ccc3nc(CN[C@@H](C)C(N)=O)n(C4CCOCC4)c3c2)cc1 [Example 129]	90.3%
C[C@H](NCc1nc2ccc(Oc3ccc(OC(F)(F)F)cc3)cc2n1C1CCOCC1)C(N)=O [Example 130]	42.1%
Cc1ccc(Oc2ccc3nc(CN[C@@H](C)C(N)=O)n(C[C@H]4CCCO4)c3c2)cc1 [Example 131]	55.9%
C[C@H](NCc1nc2ccc(Oc3ccc(OC(F)(F)F)cc3)cc2n1C[C@H]1CCCO1)C(N)=O [Example 132]	86.4%
C[C@H](NCc1nc2ccc(Oc3ccc(OC(F)(F)F)cc3)cc2n1CCCO)C(N)=O [Example 133]	91.7%

SMILES	inhibition at 12.5 µM
C[C@H](NCc1nc2ccc(Oc3ccc(OC(F)(F)F)cc3)cc2n1CCO)C(N)=O [Example 134]	95.7%
CCn1c(CNC(C)(C)C(N)=O)nc2ccc(Oc3ccc(C)cc3)cc21 [Example 135]	57.8%
CC(C)(NCc1nc2ccc(Oc3ccc(F)cc3)cc2n1C1CC1)C(N)=O [Example 136]	28.7%
CC(C)(NCc1nc2ccc(Oc3ccc(F)cc3F)cc2n1C[C@@H]1CCCO1)C(N)=O [Example 137]	90.7%
CCn1c(CNC(C)(C)C(N)=O)nc2ccc(Oc3ccc(F)cc3)cc21 [Example 138]	93.1%
CCn1c(CN[C@@H](C)C(N)=O)nc2ccc(Oc3ccc(F)cc3)cc21 [Example 139]	96%
Cc1ccc(Oc2ccc3nc(CNC(C)(C)C(N)=O)n(C4CCOCC4)c3c2)cc1 [Example 140]	97.5%
CCOCCn1c(CNC(C)(C)C(N)=O)nc2ccc(Oc3ccc(F)c(F)c3)cc21 [Example 141]	90.3%
COCCCn1c(CNC(C)(C)C(N)=O)nc2ccc(Oc3ccc(C)cc3)cc21 [Example 142]	47.9%
CC(C)(NCc1nc2ccc(Oc3ccc(F)cc3)cc2n1CCO)C(N)=O [Example 143]	27.7%
CCOCCn1c(CN[C@@H](C)C(N)=O)nc2ccc(-c3ccc(C)cc3)cc21 [Example 144]	6.1%
CCOCCn1c(CN[C@@H](C)C(N)=O)nc2ccc(-c3ccc(OC(F)(F)F)cc3)cc21 [Example 145]	1.3%
CCOCCn1c(CN[C@@H](C)C(N)=O)nc2ccc(-c3ccc(C(F)(F)F)cc3)cc21 [Example 146]	19.7%
CCOCCn1c(CN[C@@H](C)C(N)=O)nc2ccc(-c3ccc(F)cc3F)cc21 [Example 147]	23.5%
CCOCCn1c(CN[C@@H](C)C(N)=O)nc2ccc(-c3ccc(F)c(F)c3)cc21 [Example 148]	17%
CCOCCn1c(CNC(C)(C)C(N)=O)nc2ccc(-c3ccc(F)cc3)cc21 [Example 149]	30.6%
CCOCCn1c(CN[C@@H](CC)C(N)=O)nc2ccc(-c3ccc(F)cc3)cc21 [Example 150]	45.6%
CCOCCn1c(CN[C@H](C(N)=O)C(C)C)nc2ccc(-c3ccc(F)cc3)cc21 [Example 151]	26.6%
CCOCCn1c(CN[C@@H](C)C(N)=O)nc2ccc(-c3cccc(C)c3)cc21 [Example 152]	8.9%
CCOCCn1c(CN[C@@H](C)C(N)=O)nc2ccc(-c3ccccc3C)cc21 [Example 153]	28.5%
CCn1c(CNC(C)(C)C(N)=O)nc2ccc(-c3ccc(F)cc3)cc21 [Example 154]	11.2%
CCOCCn1c(CN[C@@H](C)C(N)=O)nc2ccc(-c3ccc(F)cc3Cl)cc21 [Example 155]	86.1%
CCOCCn1c(CNC(C)(C)C(N)=O)nc2ccc(-c3ccc(F)cc3Cl)cc21 [Example 156]	71.2%

SMILES	inhibition at 12.5 µM
CCOCCn1c(CN[C@@H](C)C(N)=O)nc2ccc(-c3ccc(F)cc3C)cc21 [Example 157]	89.9%
CCOCCn1c(CNC(C)(C)C(N)=O)nc2ccc(-c3ccc(F)cc3C)cc21 [Example 158]	86.1%
CCOCCn1c(CN[C@@H](C)C(N)=O)nc2ccc(-c3ccc(C)cc3C)cc21 [Example 159]	96.1%
CCOCCn1c(CNC(C)(C)C(N)=O)nc2ccc(-c3ccc(C)cc3C)cc21 [Example 160]	97%
CCOCCn1c(CN[C@@H](C)C(N)=O)nc2ccc(-c3ccc(C)c(C)c3)cc21 [Example 161]	76.2%
CCOCCn1c(CNC(C)(C)C(N)=O)nc2ccc(-c3ccc(C)c(C)c3)cc21 [Example 162]	67.3%
CCOCCn1c(CN[C@@H](CC)C(N)=O)nc2ccc(-c3ccc(C)c(C)c3)cc21 [Example 163]	36.5%
CCOCCn1c(CN[C@@H](C)C(N)=O)nc2ccc(-c3c(C)cc(C)cc3C)cc21 [Example 164]	3.7%
CCOCCn1c(CN[C@@H](C)C(N)=O)nc2ccc(-c3ccc(C)cc3F)cc21 [Example 165]	100%
CCOCCn1c(CNC(C)(C)C(N)=O)nc2ccc(-c3ccc(C)cc3F)cc21 [Example 166]	62.7%
CCOCCn1c(CN[C@@H](C)C(N)=O)nc2ccc(-c3ccc(F)c(C)c3)cc21 [Example 167]	82.8%
CCOCCn1c(CNC(C)(C)C(N)=O)nc2ccc(-c3ccc(F)c(C)c3)cc21 [Example 168]	20.2%
CCOCCn1c(CN[C@@H](C)C(N)=O)nc2ccc(-c3ccc(C)c(F)c3)cc21 [Example 169]	68.1%
CCOCCn1c(CNC(C)(C)C(N)=O)nc2ccc(-c3ccc(C)c(F)c3)cc21 [Example 170]	14.2%
CCOCCn1c(CN[C@@H](C)C(N)=O)nc2ccc(-c3cccc(F)c3F)cc21 [Example 171]	38.3%
CCOCCn1c(CN[C@@H](C)C(N)=O)nc2ccc(-c3ccc(F)cc3OC)cc21 [Example 172]	50.9%
CCOCCn1c(CN[C@@H](C)C(N)=O)nc2ccc(-c3ccc(F)c(OC)c3)cc21 [Example 173]	27.1%
CCOCCn1c(CNC(C)(C)C(N)=O)nc2ccc(-c3ccc(F)cc3OC)cc21 [Example 174]	33.4%
CCOCCn1c(CNC(C)(C)C(N)=O)nc2ccc(-c3ccc(F)c(OC)c3)cc21 [Example 175]	5.9%
CCOCCn1c(CN[C@@H](C)C(N)=O)nc2cc(Cl)c(-c3ccccc3)cc21 [Example 177]	22.5%
CCOCCn1c(CN[C@@H](C)C(N)=O)nc2cc(Cl)c(-c3ccc(C)cc3)cc21 [Example 178]	16%

same assay, conditions: compound concentration 12.5 μM

SMILES	SNS inhibitory rate (%)
CCOCCn1c(CN[C@@H](C)C(N)=O)nc2cc(Cl)c(-c3ccc(F)cc3)cc21 [Example 176]	68.8%
